Activity data for six molecules are collected here from ChEMBL document CHEMBL1128032, “Synthesis and antiviral activity of amino acid esters of ribavirin” (1994).

Test [1] has as its system Influenza A virus. Nature of the test: Antiviral activity against influenza virus A strain H7N7 (FPV) was determined as zone of cytotoxicity. The class given is functional, unidentified influenza virus.
The test system of test [2] is Suid alphaherpesvirus 1. Briefly: Antiviral activity against pseudorabies virus strain Anjeszky A2 was determined as zone of cytotoxicity. Further details: unit not given here. The class given is functional.
For test [3], the system named is Suid alphaherpesvirus 1. Nature of the test: Antiviral effect against pseudorabies virus strain Anjeszky A2 by the difference between zone of plaque inhibition and zone of cytotoxicity; (6-10 mm). In kind it is functional.
The subject of test [4] is Newcastle disease virus. Briefly: Antiviral effect against newcastle disease virus strain Russeff (NDV) by the difference between zone of plaque inhibition and zone of cytotoxicity; (11-12 mm). The class given is functional, avian paramyxovirus 1.
In test [5] the test system is Suid alphaherpesvirus 1. Nature of the test: Antiviral activity against pseudorabies virus strain Anjeszky A2 was determined as zone of plaque inhibition. On the set-up: unit not given here. In kind it is functional.
Test [6] relates to Influenza A virus. Nature of the test: Antiviral activity against influenza virus A strain H7N7 (FPV) was determined as zone of plaque inhibition. In kind it is functional, unidentified influenza virus.
The test system of test [7] is Newcastle disease virus. Briefly: Antiviral activity against newcastle disease virus strain Russeff (NDV) was determined as zone of cytotoxicity. In kind it is functional, avian paramyxovirus 1. On the set-up: unit not given here.
The test system of test [8] is Influenza A virus. Nature of the test: Antiviral effect against influenza virus A strain H7N7 (FPV) by the difference between zone of plaque inhibition and zone of cytotoxicity. In kind it is functional, unidentified influenza virus.
Test [9] relates to Newcastle disease virus. Briefly: Antiviral activity against newcastle disease virus strain Russeff (NDV) was determined as zone of plaque inhibition. In kind it is functional, avian paramyxovirus 1.
Test [10] concerns Newcastle disease virus. Nature of the test: Antiviral effect against newcastle disease virus strain Russeff (NDV) by the difference between zone of plaque inhibition and zone of cytotoxicity. The class given is functional, avian paramyxovirus 1.
The test system of test [11] is Suid alphaherpesvirus 1. Nature of the test: Antiviral effect against pseudorabies virus strain Anjeszky A2 by the difference between zone of plaque inhibition and zone of cytotoxicity. The class given is functional.
In test [12] the test system is Newcastle disease virus. Nature of the test: Antiviral effect against newcastle disease virus strain Russeff (NDV) by the difference between zone of plaque inhibition and zone of cytotoxicity; (6-10 mm). The class given is functional, avian paramyxovirus 1.
Test [13] relates to Influenza A virus. Nature of the test: Antiviral effect against influenza virus A strain H7N7 (FPV) by the difference between zone of plaque inhibition and zone of cytotoxicity; (6-10 mm). In kind it is functional, unidentified influenza virus.
The test system of test [14] is Influenza A virus. Briefly: Antiviral effect against influenza virus A strain H7N7 (FPV) by the difference between zone of plaque inhibition and zone of cytotoxicity; (11-12 mm). In kind it is functional, unidentified influenza virus.
For test [15], the system named is Suid alphaherpesvirus 1. Briefly: Antiviral effect against pseudorabies virus strain Anjeszky A2 by the difference between zone of plaque inhibition and zone of cytotoxicity; (21-40 mm). The class given is functional.
Test [16] deals with Newcastle disease virus. Nature of the test: Antiviral effect against newcastle disease virus strain Russeff (NDV) by the difference between zone of plaque inhibition and zone of cytotoxicity; (21-40 mm). The class given is functional, avian paramyxovirus 1.

`CC(C)(C)OC(=O)NCC(=O)OC[C@H]1O[C@@H](n2cnc(C(N)=O)n2)[C@@H]2OC(C)(C)O[C@@H]21`: the Activity in test [1] worked out at 10.2 mm; in test [2], 15; in test [3] it was 10 mM; in test [4] it was 12 mM; in test [5], 23.5; in test [6], 0 mm. Besides, the Activity in [7] is 19; in test [8] it was 5 mM; in test [9] it was 31.5 mm.

`CC(C)(C)OC(=O)N[C@@H](Cc1c[nH]c2ccccc12)C(=O)OCC1OC(n2cnc(C(N)=O)n2)C2OC(C)(C)OC12` (stereo partly drawn): the Activity in [1] came out at 10.7 mm; in test [2], 9; in test [10], 5 mM; in [5], 0; in [6], 15.7 mm; in [7] it was 10.7. Moreover, the figures for the Activity in test [8], in test [9] and in test [11] were 5 mM, 0 mm and 5 mm, respectively.

Consider `CC(C)(C)OC(=O)N1CCC[C@H]1C(=O)OCC1OC(n2cnc(C(N)=O)n2)C2OC(C)(C)OC12` (stereo partly drawn), for which the Activity was determined as 14 mm in test [1]; 10 in test [2]; 10 mM in test [12]; 0 in [5]; 10 mM in [13]; 22.8 mm in test [6]. Moreover, the Activity in [7] amounted to 8.7; in test [9], 16.5 mm; in [11], 5 mm.

Turning to `CC(C)(C)OC(=O)N[C@@H](Cc1ccccc1)C(=O)OCC1OC(n2cnc(C(N)=O)n2)C2OC(C)(C)OC12` (stereo partly drawn), the Activity in test [1] was determined as 9.2 mm; in test [2] it was 16.5; in test [14], 12 mM; in test [10], 5 mM; in test [5], 0; in [6], 19.3 mm. For the same molecule, the figures for the Activity in test [7], in test [9] and in [11] were 16.5, 0 mm and 5 mm, respectively.

For the molecule `CC(C)C[C@H](NC(=O)OC(C)(C)C)C(=O)OCC1OC(n2cnc(C(N)=O)n2)C2OC(C)(C)OC12` (stereo partly drawn), the Activity was 8.3 mm in test [1]; 16 in [2]; 12 mM in test [4]; 18 in test [5]; 10 mM in test [13]; 16.8 mm in test [6]. Further, the Activity is listed as 16 in test [7], 28 mm in test [9] and 5 mm in test [11].

For the molecule `NC(=O)c1ncn([C@@H]2O[C@H](CO)[C@@H](O)[C@H]2O)n1` [RIBAVIRIN], the Activity in [14] was found to be 12 mM; in [15], 40 mM; in [16], 40 mM.
